Series [1] concerns house flies, Musca domestica. In words: insecticidal activity against house flies (topical, 24 h mortality). Format: in vivo. The note with it: for LD50: Musca domestica, read-out: House flies LD50. As to the method:
Representative carbamate esters of the invention were tested for insecticidal activity against house flies, Musca domestica. Stock 1% concentrated solutions of each of the test compounds were made in acetone, and such solutions diluted with acetone to a concentration of 0.001-0.1%. House flies were treated topically on the notum by 1 μl of each of the diluted acetone solutions and percent mortality was counted 24 hours after application. The insects were held at a constant temperature of 60° F. Results are given in μg/g.
(§1) In that table the term "LD50 " represents the dose needed to kill 50% of the test animals. In interpreting the values in Table 1 below, the lower the value for LD50 for house flies, the greater the insecticidal potency or toxicity of that particular compound. On the other hand, the higher the value of LD50 for mice, the lower the mammalian toxicity or the greater is the mammalian safety of such compound.

A short description of series [2]: mammalian toxicity in mice (oral). The note with it: mouse, in vivo, corn oil carrier, Swiss white mice. How it is done: Mammalian toxicity was determined against Swiss white mice. The test compound was applied orally using corn oil as the carrier. Results are given as LD50 in mg of compound per kg body weight.
as §1

In series [3] the test system is house flies, Musca domestica. The note with it: 'is known to have', no unit printed beside the value; cited from earlier work.
Where [4] appears, read: topical on the notum, 1 μl acetone solution, 24 hours after application.

These results are taken from US4410518A, “N-Phosphinoaminosulfinylcarbamate esters and their use as insecticides” (priority 1982, dated 1983).

SMILES strings stand for the structures. Like-named read-outs stand apart in the source and are kept apart here.

By LD50 is commonly meant the dose expected to kill half of the subjects tested. In the case of `CCOP(=S)(OCC)N(C)[S+]([O-])N(C)C(=O)Oc1cccc2c1OC(C)(C)C2` (centres unmarked) [Example 1, 2,3-dihydro-2,2-dimethyl-7-benzofuranyl[[(diethoxyphosphinothioyl)methylamino]sulfinyl]methylcarbamate], the LD50 amounted to 14 mg/kg in series [1] (setting [4]) and 65 mg/kg in series [2].

`CCCN([S+]([O-])N(C)C(=O)Oc1cccc2c1OC(C)(C)C2)P(=S)(OCC)OCC` (centres unmarked) [Example 2, 2,3-dihydro-2,2-dimethyl-7-benzofuranyl[[(diethoxyphosphinothioyl)propylamino]sulfinyl]methylcarbamate]: the values for the LD50 in series [1] (setting [4]) and in series [2] were 16 mg/kg and 60 mg/kg, respectively.

For `CCCCCCN([S+]([O-])N(C)C(=O)Oc1cccc2c1OC(C)(C)C2)P(=S)(OCC)OCC` (centres unmarked) [Example 3, 2,3-dihydro-2,2-dimethyl-7-benzofuranyl[[(diethoxyphosphinothioyl)hexylamino]sulfinyl]methylcarbamate], the “House flies LD50” value in series [1] (setting [4]) came out at 19 µg/g. Besides, in series [2], the LD50 was 140 mg/kg.

Consider `CCCCCCCCCCCCN([S+]([O-])N(C)C(=O)Oc1cccc2c1OC(C)(C)C2)P(=S)(OCC)OCC` (centres unmarked) [Example 4, 2,3-dihydro-2,2-dimethyl-7-benzofuranyl[[(diethoxyphosphinothioyl)dodecylamino]sulfinyl]methylcarbamate], for which the LD50 in series [2] was greater than 1000 mg/kg.

Consider `CN(C(=O)Oc1cccc2c1OC(C)(C)C2)[S+]([O-])N(C)P1(=S)OCC(C)(C)CO1` (centres unmarked) [Example 5, 2,3-Dihydro-2,2-dimethyl-7-benzofuranyl[[(5,5-dimethyl-2-thioxo-1,3,2-dioxaphosphorinan-2-yl)methylamino]sulfinyl]methylcarbamate], for which the median lethal dose (LD50) in series [1] (setting [4]) came out at 3 mg/kg; in series [2], 70 mg/kg.

Turning to `CCCCCCN([S+]([O-])N(C)C(=O)Oc1cccc2c1OC(C)(C)C2)P1(=S)OCC(C)(C)CO1` (centres unmarked) [Example 6, 2,3-dihydro-2,2-dimethyl-7-benzofuranyl[[(5,5-dimethyl-2-thioxo-1,3,2-dioxaphosphorinan-2-yl)hexylamino]sulfinyl]methylcarbamate], the LD50 in series [2] is 105 mg/kg.

Consider `CCOP(=O)(OCC)N(C)[S+]([O-])N(C)C(=O)Oc1cccc2c1OC(C)(C)C2` (centres unmarked) [Example 7, 2,3-dihydro-2,2-dimethyl-7-benzofuranyl[[(diethoxyphosphinyl)methylamino]sulfinyl]methylcarbamate], for which the median lethal dose (LD50) in series [1] (topical, 24 h) worked out at 19 mg/kg.

Turning to `CCCN([S+]([O-])N(C)C(=O)Oc1cccc2c1OC(C)(C)C2)P(=O)(OCC)OCC` (centres unmarked) [Example 8, 2,3-dihydro-2,2-dimethyl-7-benzofuranyl[[(diethoxyphosphinyl)propylamino]sulfinyl]methylcarbamate], in series [2], the LD50 came out at 100 mg/kg.

With `COP(=S)(OC)N(C)[S+]([O-])N(C)C(=O)ON=C(C)SC` (centres unmarked) [Example 9, methyl N-[[[[[(dimethoxyphosphinothioyl)methylamino]sulfinyl]methylamino]carbonyl]oxy]ethanimidothioate], the results for the 50% lethal dose (LD50) in series [1] (setting [4]) and in series [2] were 24 mg/kg and 120 mg/kg, respectively.

`CCN([S+]([O-])N(C)C(=O)ON=C(C)SC)P(=S)(OC)OC` (centres unmarked) [Example 10, methyl N-[[[[[(dimethoxyphosphinothioyl)ethylamino]sulfinyl]methylamino]carbonyl]oxy]ethanimidothioate]: the LD50 in series [1] (setting [4]) came out at 14 mg/kg.

On to `CCOP(=S)(OCC)N(C)[S+]([O-])N(C)C(=O)ON=C(C)SC` (centres unmarked) [Example 11, methyl N-[[[[[(diethoxyphosphinothioyl)methylamino]sulfinyl]methylamino]carbonyl]oxy]ethanimidothioate], for which the LD50 in series [1] (setting [4]) worked out at 12 mg/kg; in series [2] it was 130 mg/kg.

For `CCOP(=S)(OCC)N(CC)[S+]([O-])N(C)C(=O)ON=C(C)SC` (centres unmarked) [Example 12, methyl N-[[[[[(diethoxyphosphinothioyl)ethylamino]sulfinyl]methylamino]carbonyl]oxy]ethanimidothioate], the median lethal dose (LD50) in series [1] (setting [4]) amounted to 13 mg/kg.

`CCCN([S+]([O-])N(C)C(=O)ON=C(C)SC)P(=S)(OCC)OCC` (centres unmarked) [Example 13, methyl N-[[[[[(diethoxyphosphinothioyl)propylamino]sulfinyl]methylamino]carbonyl]oxy]ethanimidothioate]: the median lethal dose (LD50) in series [1] (setting [4]) worked out at 8 mg/kg; in series [2], 120 mg/kg.

In the case of `CCOP(=S)(OCC)N(C(C)C)[S+]([O-])N(C)C(=O)ON=C(C)SC` (centres unmarked) [Example 14, methyl N-[[[[[(diethoxyphosphinothioyl)isopropylamino]sulfinyl]methylamino]carbonyl]oxy]ethanimidothioate], the LD50 in series [1] (setting [4]) turned out to be 11 mg/kg.

In the case of `CCOP(=S)(OCC)N(C(C)CC)[S+]([O-])N(C)C(=O)ON=C(C)SC` (centres unmarked) [Example 15, methyl N-[[[[[(diethoxyphosphinothioyl)sec-butylamino]sulfinyl]methylamino]carbonyl]oxy]ethanimidothioate], in series [1] (setting [4]), the LD50 was determined as 10 mg/kg.

On to `CCOP(=S)(OCC)N(C1CCCC1)[S+]([O-])N(C)C(=O)ON=C(C)SC` (centres unmarked) [Example 16, methyl N-[[[[[(diethoxyphosphinothioyl)cyclopentylamino]sulfinyl]methylamino]carbonyl]oxy]ethanimidothioate], for which the LD50 in series [1] (setting [4]) turned out to be 12 mg/kg.

Take `CCCCCCN([S+]([O-])N(C)C(=O)ON=C(C)SC)P(=S)(OCC)OCC` (centres unmarked) [Example 17, Methyl N-[[[[[(diethoxyphosphinothioyl)hexylamino]sulfinyl]methylamino]carbonyl]oxy]ethanimidothioate]: the LD50 in series [1] (setting [4]) turned out to be 23 mg/kg; in series [2] it was 250 mg/kg.

Take `CCOP(=S)(OCC)N(C1CCCCC1)[S+]([O-])N(C)C(=O)ON=C(C)SC` (centres unmarked) [Example 18, methyl N-[[[[[(diethoxyphosphinothioyl)cyclohexylamino]sulfinyl]methylamino]carbonyl]oxy]ethanimidothioate]: the 50% lethal dose (LD50) in series [1] (setting [4]) was 18 mg/kg.

Regarding `CSC(C)=NOC(=O)N(C)[S+]([O-])N(C)P1(=S)OCC(C)(C)CO1` (centres unmarked) [Example 19, methyl N-[[[[[(5,5-dimethyl-2-thioxo-1,3,2-dioxaphosphorinan-2-yl)(methyl)amino]sulfinyl]methylamino]carbonyl]oxy]ethanimidothioate], the LD50 in series [1] (setting [4]) turned out to be 58 mg/kg; in series [2] it was 200 mg/kg.

Take `CCN([S+]([O-])N(C)C(=O)ON=C(C)SC)P1(=S)OCC(C)(C)CO1` (centres unmarked) [Example 20, methyl N-[[[[[(5,5-dimethyl-2-thioxo-1,3,2-dioxaphosphorinan-2-yl)(ethyl)amino]sulfinyl]methylamino]carbonyl]oxy]ethanimidothioate]: the 50% lethal dose (LD50) in series [1] (setting [4]) worked out at 120 mg/kg.

On to `CCOP(=S)(OCC)N(C)[S+]([O-])N(C)C(=O)ON=C(SC)C(=O)N(C)C` (centres unmarked) [Example 21, methyl 2-(dimethylamino)-N-[[[[[(diethoxyphosphinothioyl)methylamino]sulfinyl]methylamino]carbonyl]oxy]-2-oxoethanimidothioate], for which the LD50 in series [1] (setting [4]) came to 15 mg/kg; in series [2], 23 mg/kg.

Take `CCOP(=S)(OCC)N(CC)[S+]([O-])N(C)C(=O)ON=C(SC)C(=O)N(C)C` (centres unmarked) [Example 22, methyl 2-(dimethylamino)-N-[[[[[(diethoxyphosphinothioyl)ethylamino]sulfinyl]methylamino]carbonyl]oxy]-2-oxoethanimidothioate]: the LD50 in series [1] (setting [4]) was 18 mg/kg.

As to `CCOP(=S)(OCC)N(C(C)C)[S+]([O-])N(C)C(=O)ON=C(SC)C(=O)N(C)C` (centres unmarked) [Example 23, methyl 2-(dimethylamino)-N-[[[[[(diethoxyphosphinothioyl)isopropylamino]sulfinyl]methylamino]carbonyl]oxy]-2-oxoethanimidothioate], the LD50 was 10 mg/kg in series [1] (setting [4]) and 22 mg/kg in series [2].

`CCOP(=S)(OCC)N(C1CCCC1)[S+]([O-])N(C)C(=O)ON=C(SC)C(=O)N(C)C` (centres unmarked) [Example 24, Methyl 2-(dimethylamino)-N-[[[[[(diethoxyphosphinothioyl)cyclopentylamino]sulfinyl]methylamino]carbonyl]oxy]-2-oxoethanimidothioate]: the 50% lethal dose (LD50) in series [1] (setting [4]) was 16 mg/kg.

On to `CSC(=NOC(=O)N(C)[S+]([O-])N(C)P1(=S)OCC(C)(C)CO1)C(=O)N(C)C` (centres unmarked) [Example 25, methyl 2-(dimethylamino)-N-[[[[[(5,5-dimethyl-2-thioxo-1,3,2-dioxaphosphorinan-2-yl)(methyl)amino]sulfinyl]methylamino]carbonyl]oxy]-2-oxoethanimidothioate], for which the values for the LD50 in series [1] (setting [4]) and in series [2] were 150 mg/kg and 25 mg/kg, respectively.

In the case of `CNC(=O)Oc1cccc2c1OC(C)(C)C2` [carbofuran, 2,3-dihydro-2,2-dimethyl-7-benzofuranyl methylcarbamate], the “LD50 for house flies (carbofuran, known)” value in series [3] is “about 6.5”.
